Assay results from article PMC5482477, “Overexpression and characterization of two types of nitrile hydratases from Rhodococcus rhodochrous J1” (PLoS ONE, 2017).

Target: T1, H-NHase (NhhBA) (Rhodococcus rhodochrous, UniProt P21219+P21220)
T1 construct: gene nhhA; alpha10beta10, 504 kDa by gel filtration; cobalt-containing
T1 sequence (P21219 2-203): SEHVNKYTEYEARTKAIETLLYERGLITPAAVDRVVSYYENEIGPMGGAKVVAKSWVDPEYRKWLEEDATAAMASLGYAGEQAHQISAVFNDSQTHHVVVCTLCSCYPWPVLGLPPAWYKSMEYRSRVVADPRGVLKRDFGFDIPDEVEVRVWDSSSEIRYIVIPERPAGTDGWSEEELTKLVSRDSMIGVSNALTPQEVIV
T1 sequence (P21220 1-229): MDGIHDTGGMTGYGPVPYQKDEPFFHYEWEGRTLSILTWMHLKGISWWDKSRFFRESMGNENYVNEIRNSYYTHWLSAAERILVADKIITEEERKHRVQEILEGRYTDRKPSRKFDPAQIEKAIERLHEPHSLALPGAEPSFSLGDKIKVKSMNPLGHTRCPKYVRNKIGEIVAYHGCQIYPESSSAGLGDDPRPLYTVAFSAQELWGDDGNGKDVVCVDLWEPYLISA
Experiment: residual activity after […] min treatment, HPLC
Type: biochemical

## NC(=O)c1cccnc1 [nicotinamide]
  remaining activity at 1.5 M: 60%
